# Data: patent publication US5262417A, “Antibacterial quinolone compounds” (The Upjohn Company, priority 1991, dated 1993)
# Read-outs that look alike come from different tables or passages of the source.
# What was measured:
# Assay in all cases: Minimum inhibitory concentration (MIC) by agar dilution
# Type in all cases: cell-based
# [1] = tested on: Enterobacter cloacae; conditions: 20 h, read-out: MINIMUM INHIBITORY CONCENTRATION
# Method: (§1) Briefly, MIC values are determined in unsupplemented Mueller Hinton Agar (MHA). The compounds tested are diluted serially into molten MHA at 47° C. The agar is poured into petri dishes and allowed to harden. The various bacteria used for testing are grown overnight on MHA at 35° C. and transferred to Trypticase soy broth (TSB) until a turbidity of 0.5 McFarland standard is obtained. The bacteria are diluted one to 20 in TSB and inoculated on the plates (1 μl using a Steers replicator).
# as §1, with “Compounds of this invention can also be tested for in vitro antimicrobial activity using standard testing procedures such as the determination of minimum inhibitory concentration (MIC) by agar dilution as described in "Methods for Dilution Antimicrobial Susceptibility Tests for Bacteria That Grow Aerobically" (MFT) published Jan. […] Briefly,” for “Briefly,”, “(1μl” for “(1 μl”
# [2] = tested on: Acinetobacter calcoaceticus; conditions: Acinetobacter calcoaceticus, 20 h, read-out: MINIMUM INHIBITORY CONCENTRATION, Cult No. 12170, MHA
# Method: as §1, with “The antibacterial activity of the compounds of Formula IC was determined by using standard testing procedures such as the determination of minimum inhibitory concentration (MIC) by agar dilution as described in "Methods for Dilution Antimicrobial Susceptibility Tests for Bacteria That Grow Aerobically" (MFT) published January 1983 by the National Committee for Clinical Laboratory Standards, 771 East Lancaster Avenue, Villanova, Pa. 19084, USA. Briefly,” for “Briefly,”
# (§2) Compounds of this invention can also be tested for in vitro antimicrobial activity using standard testing procedures such as the determination of minimum inhibitory concentration (MIC) by agar dilution as described in "Methods for Dilution Antimicrobial Susceptibility Tests for Bacteria That Grow Aerobically" (MFT) published Jan. 1983 by the National Committee for Clinical Laboratory Standards, 771 East Lancaster Avenue, Villanova, Penna. 19084, USA. Briefly, MIC values are determined in unsupplemented Mueller Hinton Agar (MHA). The compounds tested are diluted serially into molten MHA at 47° C. The agar is poured into petri dishes and allowed to harden. The various bacteria used for testing are grown overnight on MHA at 35° C. and transferred to Trypticase soy broth (TSB) until a turbidity of 0.5 McFarland standard is obtained. The bacteria are diluted one to 20 in TSB and inoculated on the plates (1μl using a Steers replicator). […] The MIC test results of selected of Formula B compounds of this invention are found in Tables B2-B9.
# [3] = tested on: Citerobacter freundii; conditions: 20 h, read-out: MINIMUM INHIBITORY CONCENTRATION
# Method: (§3) The antibacterial activity of the compounds of Formula IC was determined by using standard testing procedures such as the determination of minimum inhibitory concentration (MIC) by agar dilution as described in "Methods for Dilution Antimicrobial Susceptibility Tests for Bacteria That Grow Aerobically" (MFT) published January 1983 by the National Committee for Clinical Laboratory Standards, 771 East Lancaster Avenue, Villanova, Pa. 19084, USA. Briefly, MIC values are determined in unsupplemented Mueller Hinton Agar (MHA). The compounds tested are diluted serially into molten MHA at 47° C. The agar is poured into petri dishes and allowed to harden. The various bacteria used for testing are grown overnight on MHA at 35° C. and transferred to Trypticase soy broth (TSB) until a turbidity of 0.5 McFarland standard is obtained. The bacteria are diluted one to 20 in TSB and inoculated on the plates (1 μl using a Steers replicator).
# as §2
# [4] = tested on: Escherichia coli; conditions: Escherichia coli, 20 h
# Method: as §3, §2
# [5] = tested on: Klebsiella pneumoniae; conditions: 20 h, read-out: MINIMUM INHIBITORY CONCENTRATION
# Method: as §3, §2
# [6] = tested on: Proteus penneri; conditions: Proteus penneri, 20 h, read-out: MINIMUM INHIBITORY CONCENTRATION, Cult No. 9679, MHA
# Method: as §3, §2
# [7] = tested on: Pseudomonas aeruginosa; conditions: Pseudomonas aeruginosa, 20 h
# Method: as §3, §2
# [8] = tested on: Serratia marcescens; conditions: 20 h, read-out: MINIMUM INHIBITORY CONCENTRATION
# Method: as §3, §2
# [9] = tested on: Staphylococcus aureus; conditions: Staphylococcus aureus, 20 h
# Method: as §3, §2
# [10] = tested on: Staphylococcus epidermidis; conditions: 20 h, read-out: MINIMUM INHIBITORY CONCENTRATION
# Method: as §3, §2
# [11] = tested on: Streptococcus faecalis; conditions: Enterococcus faecalis, 20 h, read-out: MINIMUM INHIBITORY CONCENTRATION
# Method: as §3, §2
# [12] = tested on: Streptococcus pneumoniae; conditions: Streptococcus pneumoniae, 20 h, read-out: MINIMUM INHIBITORY CONCENTRATION, Cult No. 41, MHA
# Method: as §3, §2
# [13] = tested on: Streptococcus pyogenes; conditions: Streptococcus pyogenes, 20 h, read-out: MINIMUM INHIBITORY CONCENTRATION, Cult No. 152, MHA
# Method: as §3, §2
# [14] = read-out: MINIMUM INHIBITORY CONCENTRATION, Cult No. 6674, MHA
# [15] = read-out: MINIMUM INHIBITORY CONCENTRATION, Cult No. 9451, MHA
# [16] = read-out: MINIMUM INHIBITORY CONCENTRATION, Cult No. 9855, MHA
# [17] = read-out: MINIMUM INHIBITORY CONCENTRATION, Cult No. 9952, MHA
# [18] = read-out: MINIMUM INHIBITORY CONCENTRATION, Cult No. 6676, MHA
# [19] = read-out: MINIMUM INHIBITORY CONCENTRATION, Cult No. 9191, MHA
# [20] = read-out: MINIMUM INHIBITORY CONCENTRATION, Cult No. 12120, MHA
# [21] = read-out: MINIMUM INHIBITORY CONCENTRATION, Cult No. 6685, MHA
# [22] = read-out: MINIMUM INHIBITORY CONCENTRATION, Cult No. 9213, MHA
# [23] = read-out: MINIMUM INHIBITORY CONCENTRATION, Cult No. 9218, MHA
# [24] = read-out: MINIMUM INHIBITORY CONCENTRATION, Cult No. 9271, MHA
Compound,MIC [1] [µg/mL],MIC [2] [µg/mL],MIC [3] [µg/mL],"MIC [4, 14] [µg/mL]","MIC [4, 15] [µg/mL]","MIC [4, 16] [µg/mL]","MIC [4, 17] [µg/mL]",MIC [5] [µg/mL],MIC [6] [µg/mL],"MIC [7, 18] [µg/mL]","MIC [7, 19] [µg/mL]","MIC [7, 20] [µg/mL]",MIC [8] [µg/mL],"MIC [9, 21] [µg/mL]","MIC [9, 22] [µg/mL]","MIC [9, 23] [µg/mL]","MIC [9, 24] [µg/mL]",MIC [10] [µg/mL],MIC [11] [µg/mL],MIC [12] [µg/mL],further results
"O=C(O)c1cn(C23CC(C2)C3)c2c(F)c(N3CCC(O)C3)c(F)cc2c1=O (stereo not drawn) [No. 3, 7-(3-hydroxy-1-pyrrolidinyl)-1-(bicyclo[1.1.1]pent-1-yl)-1,4-dihydro-6,8-difluoro-4-oxo-3-quinolinecarboxylic acid]",0.25,0.25,0.25,0.25,0.25,0.25,0.125,0.5,0.5,2,2,1,1,0.06,0.125,0.125,0.125,0.125,1,1,MIC [13]: 2 µg/mL
"O=C(O)c1cn(C23CC(C2)C3)c2nc(N3CCNCC3)c(F)cc2c1=O [No. 4, 7-(1-piperazinyl)-1-(bicyclo[1.1.1]pent-1-yl)-1,4-dihydro-6-fluoro-4-oxo-1,8-naphthyridine-3-carboxylic acid]",0.06,0.25,0.06,0.06,0.06,0.06,0.06,0.125,0.5,2,1,0.5,0.25,0.25,0.5,0.5,0.5,0.25,2,2,MIC [13]: 2 µg/mL
"CN1CCN(c2c(F)cc3c(=O)c(C(=O)O)cn(C45CC(C4)C5)c3c2F)CC1 [No. 99, 7-(4-methyl-1-piperazinyl)-1-(bicyclo[1.1.1]pent-1-yl)-1,4-dihydro-6,8-difluoro-4-oxo-3-quinolinecarboxylic acid]",0.25,0.125,0.25,0.25,0.255,0.25,0.125,0.5,2,4,4,2,1,0.5,0.5,0.5,0.5,0.5,4,2,MIC [13]: 2 µg/mL
